Structures can show the parent of a compound that is named as a salt.
Tests used:
Format in all cases: in vivo
[1] = test system: common barnyardgrass (Echinochloa crus-galli); assay: Example 214: greenhouse pot test, spray above the pot 25 days after seeding; settings: rating 0 to 100; application rate compound X 10 g/ha, chlorimuron-ethyl 16 g/ha; 216 L/ha; 18 days after spraying
Protocol: A formulation was produced by dissolving a predetermined amount of chlorimuron-ethyl in DMF containing 2% Tween 20 (polyoxyethylene (20) sorbitan monolaurate) (called chlorimuron-ethyl formulation).
After filling a plastic pot with soil, common barnyardgrass (Echinochloa crus-galli) was seeded therein and grown in a greenhouse. […] Thereafter, the weeds were grown in the greenhouse for 18 days and the herbicidal effect was estimated.

[2] = test system: Italian ryegrass (Lolium multiflorum); assay: Example 208: greenhouse pot test, spray above the pot 21 days after seeding; settings: rating 0 to 100; application rate compound X 15 g/ha, clethodim 53 g/ha; 200 L/ha; evaluated 6 days after spraying
Protocol: The compound X (55 mg) produced in Reference Production Example 1, 76.5 mg of Emulsogen TS290 (polyoxyethylene tristyryl phenyl ether, manufactured by Clariant) and 76.5 mg of Phenylsulfonat CAL (mixture of 70% calcium dodecylbenzenesulfonate and 30% iso-butanol, manufactured by Clariant) were dissolved in Solvesso 200ND (aromatic hydrocarbon, manufactured by Exxon Mobile Corporation) to make 1 ml in total, thus producing an emulsifiable concentrate (hereinafter referred to as formulation X).
After filling a plastic pot with soil, Italian ryegrass (Loliism multiflorum) was seeded therein and grown in a greenhouse.

[3] = test system: common barnyardgrass (Echinochloa crus-galli); assay: Example 218: greenhouse pot test, spray above the pot 25 days after seeding; settings: rating 0 to 100; application rate (table) compound X 10 g/ha, pyroxasulfone 40 g/ha; 216 L/ha; 18 days after spraying
Protocol: A formulation was produced by dissolving a predetermined of pyroxasulfone in DMF containing 2% Tween 20 (polyoxyethylene (20) sorbitan monolaurate) (called pyroxasulfone formulation).
(§1) After filling a plastic pot with soil, common barnyardgrass (Echinochloa crus-galli) was seeded therein and grown in a greenhouse. […] Thereafter, the weeds were grown in the greenhouse for 18 days and the herbicidal effect was evaluated.

[4] = test system: common barnyardgrass (Echinochloa crus-galli); assay: Example 215: greenhouse pot test, spray above the pot 25 days after seeding; settings: rating 0 to 100; application rate compound X 10 g/ha, mesotrione 35 g/ha; 216 L/ha; 18 days after spraying
Protocol: A formulation was produced by dissolving a predetermined amount of mesotrione in DMF containing 2% Tween 20 (polyoxyethylene (20) sorbitan monolaurate) (called mesotrione formulation).
as §1

Italian ryegrass = assay: Example 213: greenhouse pot test, spray above the pot 21 days after seeding; settings: rating 0 to 100; application rate compound X 15 g/ha, glufosinate ammonium salt 297 g/ha; 200 L/ha; evaluated 8 days after spraying
[5] = test system: Italian ryegrass (Lolium multiflorum); assay: Example 212: greenhouse pot test, spray above the pot 21 days after seeding; settings: rating 0 to 100; application rate compound X 15 g/ha, glyphosate potassium salt 630 g/ha; 200 L/ha; evaluated 6 days after spraying
Protocol: (§2) After filling a plastic pot with soil, Italian ryegrass (Lolium multiflorum) and giant foxtail (Setaria faberi) were seeded therein and grown in a greenhouse.

[6] = test system: giant foxtail (Setaria faberi); assay: as above; settings: rating 0 to 100; application rate compound X 15 g/ha, glyphosate potassium salt 630 g/ha; 200 L/ha; evaluated 6 days after spraying
Protocol: as §2

[7] = test system: common barnyardgrass (Echinochloa crus-galli); assay: Example 216: greenhouse pot test, spray above the pot 25 days after seeding; settings: rating 0 to 100; application rate compound X 10 g/ha, metribuzin 105 g/ha; 216 L/ha; 18 days after spraying
Protocol: A formulation was produced by dissolving a predetermined amount of metribuzin in DMF containing 2% Tween 20 (polyoxyethylene (20) sorbitan monolaurate) (called metribuzin formulation).
as §1

[8] = test system: common barnyardgrass (Echinochloa crus-galli); assay: Example 217: greenhouse pot test, spray above the pot 25 days after seeding; settings: rating 0 to 100; application rate (table) compound X 10 g/ha, flumioxazin 30 g/ha; 216 L/ha; 18 days after spraying
Protocol: A formulation was produced by dissolving a predetermined amount of flumioxazin in DMF containing 2% Tween 20 (polyoxyethylene (20) sorbitan monolaurate) (called flumioxazin formulation).
as §1

[9] = test system: Italian ryegrass (Lolium multiflorum); assay: Example 209: greenhouse pot test, spray above the pot 21 days after seeding; settings: rating 0 to 100; application rate compound X 15 g/ha, pendimethalin 560 g/ha; 200 L/ha; evaluated 6 or 8 days after spraying
Protocol: as §2

[10] = test system: giant foxtail (Setaria faberi); assay: as above; settings: rating 0 to 100; application rate compound X 15 g/ha, pendimethalin 560 g/ha; 200 L/ha; evaluated 6 or 8 days after spraying
Protocol: as §2

CCOC(=O)c1ccccc1S(=O)(=O)NC(=O)Nc1nc(Cl)cc(OC)n1 [Chlorimuron-ethyl, chlorimuron-ethyl]
Herbicidal effect on common barnyardgrass (observed value) [1]: 45

CCSC(C)CC1CC(=O)C(/C(CC)=N/OC/C=C/Cl)=C(O)C1 (stereo not shown) [Clethodim, clethodim]
Herbicidal effect on Italian ryegrass (observed value) [2]: 10

CCOC(=O)COC(=O)C1(Oc2cc(-n3c(=O)cc(C(F)(F)F)n(C)c3=O)c(F)cc2Cl)CC1 [Compound X]
Herbicidal effect on common barnyardgrass (observed value) [3]: 45 | Herbicidal effect on common barnyardgrass (observed value) [4]: 45 | Herbicidal effect on Italian ryegrass (observed value) (Italian ryegrass): 20 | Herbicidal effect on Italian ryegrass (observed value) [5]: 20 | Herbicidal effect on giant foxtail (observed value) [6]: 70 | Herbicidal effect on common barnyardgrass (observed value) [7]: 45 | Herbicidal effect on common barnyardgrass (observed value) [8]: 45 | Herbicidal effect on Italian ryegrass (observed value) [9]: 20 | Herbicidal effect on giant foxtail (observed value) [10]: 70 | Herbicidal effect on common barnyardgrass (observed value) [1]: 45 | Herbicidal effect on Italian ryegrass (observed value) [2]: 20

C#CCN1C(=O)COc2cc(F)c(N3C(=O)C4=C(CCCC4)C3=O)cc21 [Flumioxazin, flumioxazin]
Herbicidal effect on common barnyardgrass (observed value) [8]: 55

CP(=O)(O)CCC(N)C(=O)O (stereo not shown) [Glufosinate ammonium salt, glufosinate ammonium salt]
Herbicidal effect on Italian ryegrass (observed value) (Italian ryegrass): 80

O=C(O)CNCP(=O)(O)O [Glyphosate potassium salt, glyphosate potassium salt]
Herbicidal effect on Italian ryegrass (observed value) [5]: 50 | Herbicidal effect on giant foxtail (observed value) [6]: 40

CS(=O)(=O)c1ccc(C(=O)C2C(=O)CCCC2=O)c([N+](=O)[O-])c1 [Mesotrione, mesotrione]
Herbicidal effect on common barnyardgrass (observed value) [4]: 40

CSc1nnc(C(C)(C)C)c(=O)n1N [Metribuzin, metribuzin]
Herbicidal effect on common barnyardgrass (observed value) [7]: 8

CCC(CC)Nc1c([N+](=O)[O-])cc(C)c(C)c1[N+](=O)[O-] [Pendimethalin, pendimethalin]
Herbicidal effect on Italian ryegrass (observed value) [9]: 0 | Herbicidal effect on giant foxtail (observed value) [10]: 0

Cn1nc(C(F)(F)F)c(CS(=O)(=O)C2=NOC(C)(C)C2)c1OC(F)F [Pyroxasulfone, pyroxasulfone]
Herbicidal effect on common barnyardgrass (observed value) [3]: 2

From patent publication US20240049711A1, “HERBICIDE COMPOSITION AND WEED CONTROLLING METHOD” (SUMITOMO CHEMICAL COMPANY, LIMITED, priority 2020, published 2024)
